Data published in US12478081B2, “Application of aspartic acid derivative in preparing animal feed additive” (ANIPHA TECHNOLOGIES PTY LTD, priority 2018, dated 2025).
Marks after values point to notes of the source that are not given here.

Columns and labels:
[1] = Thermal stability of compounds at 60° C. (HPLC content of raw material and 2% premix); format: physicochemical; settings: for Detection result of the content of test sample (%) Day 5: Day 5, relative to Day 0; for Detection result of the content of test sample (%) Day 10: Day 10, relative to Day 0
Description: The variations of the contents of the main ingredient of the aspartic acid derivative raw material and the main ingredient of a premix containing 2% mass fraction of the aspartic acid derivative (hereinafter referred to as 2% premix) over time were investigated under the conditions of stability test at 60° C.
Experimental apparatus: drug stability incubator, Waters high-performance liquid chromatograph (HPLC), etc.
Test samples: N-carbamoyl-DL-aspartic acid (compound 1), diethyl N-carbamoyl-DL-aspartate (compound 2), Sodium N-carbamoyl-DL-aspartate (compound 3), Calcium N-carbamoyl-DL-aspartate (compound 4), Zinc N-carbamoyl-DL-aspartate (compound 5), Copper N-carbamoyl-DL-aspartate (compound 6), Iron N-carbamoyl-DL-aspartate (compound 7), N-glycyl-DL-aspartic acid (compound 8), N-(4-aminobutyryl)-DL-aspartic acid (compound 9), N-(10-aminodecanoyl)-DL-aspartic acid (compound 10), N-(14-aminomyristoyl)-DL-aspartic acid (compound 11).
Preparation of standard solution: 50 mg of the test sample raw material was ultrasonically dissolved in 50 mL of water to obtain a working reserve solution. An appropriate amount of the working reserve solution was taken and diluted with water respectively to concentrations of 125 ppm, 250 ppm, 500 ppm, and 1000 ppm for HPLC testing. It was checked whether the sample concentrations are in a linear relationship with the peak area response values in HPLC, and a standard curve was established.
Preparation of test solution: An appropriate amount of the test sample raw material and an appropriate amount of a premix containing 2% mass fraction of the test sample (hereinafter referred to as 2% premix) were separately ultrasonically dissolved in an appropriate amount of water to form a 1000 ppm solution, which is filtered through a 0.22 µm filter membrane and then analyzed by HPLC.
HPLC analysis conditions: chromatographic column: Waters C18 column (250 mm×4.6 mm, 5 μm); mobile phase: 0.05% phosphoric acid:methanol=95:5 (v:v) (raw material); 0.05% phosphoric acid: methanol (gradient elution); methanol: 5%→40% (0-15 min) curve 6, 40%→5% (15-16 min) curve 1, 5% (16-23 min) curve 1, (premix, feed); detection wavelength: 210 nm; column temperature: 25° C.; sample size: 20 μL; flow rate: 1 mL/min.
Test method: The test sample raw material and its 2% premix were placed in a culture plate, spread into a thin layer of <5 mm, and placed at 60° C. Samples were taken on the day 5 and ? day 10 for HPLC detection. Each sample was sampled three times in parallel.

weaned piglets = assay: Breeding test: production performance of weaned piglets; format: in vivo, Duroc×Landrace×Yorkshire cross-bred weaned piglets; settings: weaned piglets, 1000 ppm metal ion salt in basal daily ration, 40 days
From the text: From 95 litters of 28±2 days old Duroc×Landrace×Yorkshire cross-bred weaned piglets, 360 clinically healthy piglets with similar body weights were selected as test pigs, which were randomly divided into 12 groups, with 3 replications per group and 10 pigs (half of male and female) per replication. The piglets were attracted to the food trough at the age of 7 days, and the hog house for 28-day-old weaned pigs has a cement floor, steel fence, good ventilation, and suitable temperature. The pigpens and utensils were sterilized before the test.
During the test period, the test pigs were free-stall housed in the same pigpen under the same feeding and management conditions, and were free to drink water and eat feed. The hog house was cleaned once a day, and the floor is washed once every three days to maintain clean and hygienic conditions. The test pigs were fed three times a day. The test groups include control and test groups. Group I is the control group, in which only the basal daily ration was fed to the piglets. […] 1000 ppm of a the aspartic acid derivative metal ion salt was added into the basal daily ration for the piglets in the groups VIII-XII, as shown in Table 2. No other antioxidant ingredients or growth promoters were added for the test groups during the entire feeding process. The test period was 40 days.
The test pigs were weighed during 7:00 to 9:00 in the morning of Day 0 and Day 40 after the start of the test. During the test period, the feed intake and health status of the piglets were observed every day, the remaining daily ration was weighed, the feed consumption was recorded, and the average daily feed intake (ADFI, g/d*each pig), the average daily gain (ADG, g/d*each pig), and the feed conversion ratio (FCR) were calculated. Calculation formulas are as follows: […]
The test data was statistically analyzed using SPSS18 software. First, a one-way analysis of variance (ANOVA) was performed on the data. If the difference between treatments is significant, Duncan's method was used for multiple comparisons, and the significance level was 0.05.

Compound	Detection result of the content of test sample (%) Day 5 ([1]; 2% premix) [%]	Detection result of the content of test sample (%) Day 10 ([1]; 2% premix) [%]	Detection result of the content of test sample (%) Day 5 ([1]; Raw material) [%]	Detection result of the content of test sample (%) Day 10 ([1]; Raw material) [%]	ADFI (g/d*each pig) (weaned piglets)	ADG (g/d*each pig) (weaned piglets)	FCR (weaned piglets)
NC(=O)NC(CC(=O)[O-])C(=O)[O-].[Ca+2] (racemic) [Compound 4, Calcium N-carbamoyl-DL-aspartate]	98.93	97.99	101.54	101.87	333 ± 8^a g/d*each pig	157 ± 0^c g/d*each pig	2.13 ± 0.05
NC(=O)NC(CC(=O)[O-])C(=O)[O-].[Fe+2] (racemic) [Compound 7, Iron N-carbamoyl-DL-aspartate]	96.74	94.98	97.63	96.01	330 ± 11^a g/d*each pig	153 ± 1^bc g/d*each pig	2.15 ± 0.06
NC(=O)NC(CC(=O)[O-])C(=O)[O-].[Cu+2] (racemic) [Compound 6, Copper N-carbamoyl-DL-aspartate]	98.28	97.94	99.91	98.31	329 ± 13^a g/d*each pig	156 ± 1^c g/d*each pig	2.11 ± 0.07
NC(=O)NC(CC(=O)[O-])C(=O)[O-].[Na+].[Na+] (racemic) [Compound 3, Sodium N-carbamoyl-DL-aspartate]	99.33	99.21	103.02	103.53	388 ± 11^bc g/d*each pig	182 ± 2^d g/d*each pig	2.13 ± 0.04
NC(=O)NC(CC(=O)[O-])C(=O)[O-].[Zn+2] (racemic) [Compound 5, Zinc N-carbamoyl-DL-aspartate]	96.89	96.36	99.76	98.47	418 ± 19^c g/d*each pig	198 ± 3^6 g/d*each pig	2.11 ± 0.07
